The source of these data is patent US20090197957A1, “Methods and compositions for the treatment of pain” (Nuon Therapeutics, Inc., priority 2005, published 2009).

Several values for one entry are separate records, joined by “and”; a condition that tells them apart may be missing. Equal entries are not always repeated.

Series [1] concerns acetic acid-induced writhing. The series is described as follows: Analgesia, acetic acid writhing in mice (Example 3). Format: in vivo, mouse. To be noted: for No. of Writhing Average: group of 5 mice; for % Inhibition: relative to vehicle control; for No. of Writhing Individual: single mice. As for the experimental part: 3-Hydroxyanthranilic acid was evaluated for possible analgesic activity in mouse acetic acid-induced pain response assay.
3-Hydroxyanthranilic acid was purchased from Sigma (USA) by MDS Pharma Services-Taiwan Ltd. and administered orally at the doses of 400, 200 and 100 mg/kg for analgesia, acetic acid-induced writhing assay. 2% Tween 80 was used as the vehicle.
Male CD-1 (Crl.) mice provided by BioLasco Taiwan (under Charles River Laboratories Technology Licensee) were used. Space allocation for 10 animals was 29×18×13 cm. All animals were maintained in a controlled temperature (23° C.-24° C.) and humidity (60%-70%) environment with 12 hours light dark cycles for at least one week in MDS Pharma Services—Taiwan Laboratory prior to use. Free access to standard lab chow for Mice (LabDiet Rodent Diet, PMI Nutrition International, USA) and tap water was granted. All aspects of this work including housing, experimentation and disposal of animals were performed in general accordance with the Guide for the Care and Use of Laboratory Animals (National Academy Press, Washington, D.C., 1996).
Test substance was administered orally to groups of 5 CD-1 (Crl.) derived male or female mice weighing 24±2 g, 2 hour before injection of acetic acid (0.5%, 20 ml/kg IP). Reduction in the number of writhes by 50 percent or more (≧50%) per group of animals observed during the 5 to 10 minute period after acetic acid administration, relative to a vehicle-treated control group, indicates possible analgesic activity.
Test substance was administered orally to groups of 5 mice 1 hour before injection of 0.5% Acetic Acid (20 ml/kg IP). The number of writhing per group of animals observed during the 5 to 10 minute period after acetic acid challenge was observed. Reduction in the number of writhing by 50 percent or more (≧50%) relative to the vehicle-treated control group indicates possible analgesic activity.
In general terms: An intraperitoneal irritant provokes the stretching counted in writhing tests.

Series [2] relates to acetic acid-induced writhing. The experiment in a line: Analgesia, acetic acid writhing in mice (Assay #503900, Example 1). Particulars: for No. of Writhing Average: group of 5 mice; for % Inhibition: relative to vehicle control; for No. of Writhing Individual: single mice. Format: in vivo, mouse. As for the experimental part: Tranilast was evaluated for possible analgesic activity in the mouse acetic acid-induced writhing model. Tranilast at 100, 200 and 400 mg/kg was administered orally (PO) 1 hour before intraperitoneal injection of acetic acid (0.5%, 20 ml/kg).
Tranilast, provided by Angiogen Pharmaceuticals Pty. Ltd., was dissolved in 1% NaHCO3 (heated to 70° C.) and administered orally at doses of 100, 200 and 400 mg/kg at 60 minutes before acetic acid injection. The dosing volume was 10 ml/kg.
Male CD-1 (Crl.) derived mice weighing 24±2 g were provided by BioLasco Taiwan (under a Charles River Laboratories Technology licensee). Space allocation for 10 animals was 29×18×13 cm. Mice were housed in APEC^R cages. All animals were maintained in a controlled temperature (22° C.-24° C.) and humidity (60%-70%) environment with 12 hours light dark cycles for at least one week in MDS Pharma Services—Taiwan Laboratory prior to use. Free access to standard lab chow for mice (Lab Diet, Rodent Diet, PMI Nutrition International, USA) and tap water was granted. All aspects of this work including housing, experimentation and disposal of animals were performed in general accordance with the Guide for the Care and Use of Laboratory Animals (National Academy Press, Washington, D.C., 1996).
Test substance was administered PO (400, 200 and 100 mg/kg) to groups of 5 CD-1 (Crl.) derived male or female mice weighing 22±2 g one hour before injection of acetic acid (0.5%, 20 ml/kg IP). Reduction in the number of writhes by 50 percent or more (≧50%) per group of animals observed during the 5 to 10 minute period after acetic acid administration, relative to the vehicle-treated control group, indicates possible analgesic activity.
Test substance was administered orally to groups of 5 mice 60 minutes before injection of Acetic Acid (0.5%, 20 ml/kg IP). The number of writhing per group of animals observed during the 5 to 10 minutes period after acetic acid challenge was observed. Reduction in the number of writhings by 50 percent or more (≧50%) relative to the vehicle-treated control group indicates possible analgesic activity.

The subject of series [3] is anti-type II collagen IgG1 and IgG2a. The experiment in a line: Serum anti-collagen antibody levels (ELISA). Format: in vivo, DBA/1 mice. As for the experimental part: ELISA plates (Nunc, Uxbridge, UK) were coated with 2 μg/ml of bovine CII dissolved overnight in Tris Buffer (0.05 M Tris, containing 0.2 M NaCl, pH 7.4) blocked with 2% bovine serum albumin (BSA) and then incubated with serial dilutions of test sera. A reference sample was included on each plate. Bound total IgG, IgG1 or IgG2a was detected by incubation with HRP-conjugated sheep anti-mouse IgG, IgG1 or IgG2a, followed by TMB substrate. Optical density was measured at 450 nm.

For series [4] the following is noted: 11,484 patients with restenosis following percutaneous coronary intervention; cited from earlier work.
[5] abbreviates: 100 mg/kg PO, 60 minutes before acetic acid.
Setting [6] is: 200 mg/kg PO, 60 minutes before acetic acid.
The mark [7] stands for this setting: 400 mg/kg PO, 60 minutes before acetic acid.

As a reminder, the % Inhibition is the relative decrease from the control value, in per cent. A lower % Inhibition goes with a response near the control. On to `Nc1c(O)cccc1C(=O)O` [3-Hydroxyanthranilic acid], for which the “No. of Writhing Average” value is 13 in series [1] (100 mg/kg PO), 12 in series [1] (200 mg/kg PO) and 8 in series [1] (400 mg/kg PO). In addition, the figures for the “% Inhibition” value in series [1] (100 mg/kg PO), in series [1] (200 mg/kg PO) and in series [1] (400 mg/kg PO) were 0%, 8% and 38%, respectively. In addition, the “No. of Writhing Individual” value in series [1] (100 mg/kg PO) is 18 and 12 (2×) and 13 and 10; in series [1] (200 mg/kg PO) it was 16 and 9 and 12 and 10 and 15; in series [1] (400 mg/kg PO before acetic acid (0.5%, 20 ml/kg IP), 5 to 10 minute period), 5 (2×) and 6 and 14 and 12. Also, the “significant analgesic activity (≧50% inhibition of writhing relative to vehicle)” value in series [1] (400, 200 and 100 mg/kg PO) was “did not demonstrate any significant analgesic activity”.

In the case of `COc1ccc(/C=C/C(=O)Nc2ccccc2C(=O)O)cc1OC` [Tranilast, 2-[[3-(3,4-dimethoxyphenyl)-1-oxo-2-propenyl]amino]benzoic acid], the “No. of Writhing Average” value in series [2] (setting [5]) is 15; in series [2] (setting [6]) it was 13; in series [2] (setting [7]) it was 9. The “% Inhibition” value in series [2] (setting [5]) amounted to 12%; in series [2] (setting [6]) it was 24%; in series [2] (setting [7]) it was 47%. For the same molecule, the “No. of Writhing Individual” value in series [2] (setting [5]) was 19 and 15 and 16 and 17 and 9; in series [2] (setting [6]), 10 (2×) and 19 and 9 and 16; in series [2] (400 mg/kg PO, 60 minutes before acetic acid (0.5%, 20 ml/kg IP), 5 to 10 minute period) it was 3 and 16 and 2 and 10 and 14. Moreover, in series [2] (100, 200 and 400 mg/kg PO), the “inhibition of acetic acid-induced writhing across doses” value is “dose-dependent inhibition”. Further, the “anti-collagen IgG1 or IgG2a levels in sera” value in series [3] (200 mg/kg/day from the day of immunisation) is on record as “no change”. Besides, the “anti-type II collagen IgG1 and IgG2a levels in sera” value in series [3] (established CIA, 100, 200 or 400 mg/kg/day over 10 days) is given as “no differences”. In addition, in series [4], the adverse cardiovascular events entry is “no significant increase”.
